Source: ChEMBL document CHEMBL4261555, “Identification of a potent kinase inhibitor targeting EML4-ALK fusion protein in non-small cell lung cancer” (Medchemcomm, 2017)
Activity calls are given as the source filed them. The calls are words filed in the database; no cut-off is given here.

Legend:
[1] = tested on: NCI-H2228; assay: Induction of apoptosis in human NCI-H2228 cells at 5 uM after 48 hrs by annexin V-FITC/propidium iodide staining-based flow cytometric method (reference value: 4.5%); format: functional
[2] = target: T1, ALK tyrosine kinase receptor (Homo sapiens, UniProt Q9UM73); assay: Inhibition of EML4-fused ALK autophosphorylation at Tyr1282/1283 in human NCI-H2228 cells at 2.5 to 10 uM after 48 hrs by Western blot method; format: cell-based
Target sequence in this assay (Q9UM73 19-1620 limits assumed): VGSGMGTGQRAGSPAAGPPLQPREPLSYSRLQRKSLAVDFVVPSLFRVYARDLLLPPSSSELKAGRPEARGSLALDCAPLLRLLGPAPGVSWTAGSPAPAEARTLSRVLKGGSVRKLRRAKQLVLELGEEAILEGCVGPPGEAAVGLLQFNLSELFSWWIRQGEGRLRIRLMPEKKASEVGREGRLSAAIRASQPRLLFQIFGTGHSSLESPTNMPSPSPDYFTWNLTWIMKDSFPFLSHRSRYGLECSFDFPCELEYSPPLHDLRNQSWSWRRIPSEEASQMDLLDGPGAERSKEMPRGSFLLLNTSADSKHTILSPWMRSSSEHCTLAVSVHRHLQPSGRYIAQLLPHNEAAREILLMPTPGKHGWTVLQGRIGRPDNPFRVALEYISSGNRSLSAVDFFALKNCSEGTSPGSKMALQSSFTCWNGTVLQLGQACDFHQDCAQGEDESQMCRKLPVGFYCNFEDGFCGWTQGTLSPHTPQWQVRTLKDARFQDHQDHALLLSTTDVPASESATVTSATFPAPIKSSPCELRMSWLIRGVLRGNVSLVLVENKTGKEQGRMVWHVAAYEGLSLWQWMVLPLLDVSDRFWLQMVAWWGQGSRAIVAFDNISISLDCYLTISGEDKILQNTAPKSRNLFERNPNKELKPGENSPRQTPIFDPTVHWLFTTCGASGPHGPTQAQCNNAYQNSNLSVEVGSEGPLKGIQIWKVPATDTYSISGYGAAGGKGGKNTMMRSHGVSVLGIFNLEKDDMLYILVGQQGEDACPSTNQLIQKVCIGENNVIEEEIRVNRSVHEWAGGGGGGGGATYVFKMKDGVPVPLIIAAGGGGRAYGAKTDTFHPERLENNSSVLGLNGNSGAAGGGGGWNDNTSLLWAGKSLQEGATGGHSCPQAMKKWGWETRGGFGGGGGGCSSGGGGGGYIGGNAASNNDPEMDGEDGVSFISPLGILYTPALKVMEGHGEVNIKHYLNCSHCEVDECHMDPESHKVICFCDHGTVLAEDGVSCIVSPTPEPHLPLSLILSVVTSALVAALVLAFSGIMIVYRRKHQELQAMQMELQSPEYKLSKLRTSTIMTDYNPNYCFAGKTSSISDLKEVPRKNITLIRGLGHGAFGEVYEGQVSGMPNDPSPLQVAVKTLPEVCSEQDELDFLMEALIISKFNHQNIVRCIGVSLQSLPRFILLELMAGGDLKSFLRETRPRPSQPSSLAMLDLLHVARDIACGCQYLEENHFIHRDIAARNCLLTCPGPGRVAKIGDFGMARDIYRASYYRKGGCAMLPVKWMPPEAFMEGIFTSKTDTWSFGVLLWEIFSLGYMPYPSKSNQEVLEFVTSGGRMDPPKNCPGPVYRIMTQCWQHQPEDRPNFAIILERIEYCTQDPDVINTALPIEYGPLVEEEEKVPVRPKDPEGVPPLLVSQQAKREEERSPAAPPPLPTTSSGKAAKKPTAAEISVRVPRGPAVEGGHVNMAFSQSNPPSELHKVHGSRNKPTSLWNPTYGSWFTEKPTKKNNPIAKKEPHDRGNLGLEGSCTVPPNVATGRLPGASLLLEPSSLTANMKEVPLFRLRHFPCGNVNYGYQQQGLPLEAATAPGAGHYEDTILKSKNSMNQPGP

[3] = target: T1, ALK tyrosine kinase receptor; assay: Inhibition of EML4-fused ALK in human NCI-H2228 cells assessed as suppression of STAT3 phosphorylation after 48 hrs by Western blot method; format: cell-based
Target sequence in this assay (Q9UM73 19-1620 limits assumed): as above

[4] = tested on: NCI-H2228; assay: Anticlonogenic activity against human NCI-H2228 cells treated every 3 days for 10 days by crystal violet staining based assay; format: functional, cell-based
[5] = target: T1, ALK tyrosine kinase receptor; assay: Inhibition of EML4-fused ALK in human NCI-H2228 cells assessed as suppression of ERK1/2 phosphorylation after 48 hrs by Western blot method; format: cell-based
Target sequence in this assay (Q9UM73 19-1620 limits assumed): as above

[6] = tested on: NCI-H2228; settings: Homo sapiens
Description: (§1) Cytotoxicity against human NCI-H2228 cells harboring EML4-ALK fusion protein assessed as decrease in cell viability after 72 hrs by MTT assay

[7] = tested on: NCI-H2228; assay: Induction of apoptosis in human NCI-H2228 cells at 10 uM after 48 hrs by annexin V-FITC/propidium iodide staining-based flow cytometric method (reference value: 4.5%); format: functional
[8] = tested on: NCI-H2228; assay: cells; settings: Homo sapiens, NCI-H2228, 72 h
Description: as §1

[9] = tested on: NCI-H2228; assay: Induction of apoptosis in human NCI-H2228 cells after 48 hrs by annexin V-FITC/propidium iodide staining-based flow cytometric method; format: functional, cell-based
[10] = target: T1, ALK tyrosine kinase receptor; assay: Inhibition of EML4-fused ALK in human NCI-H2228 cells assessed as suppression of AKT phosphorylation after 48 hrs by Western blot method; format: cell-based
Target sequence in this assay (Q9UM73 19-1620 limits assumed): as above

[11] = target: T1, ALK tyrosine kinase receptor
Target sequence in this assay (Q9UM73 whole entry, the tested form may be a part): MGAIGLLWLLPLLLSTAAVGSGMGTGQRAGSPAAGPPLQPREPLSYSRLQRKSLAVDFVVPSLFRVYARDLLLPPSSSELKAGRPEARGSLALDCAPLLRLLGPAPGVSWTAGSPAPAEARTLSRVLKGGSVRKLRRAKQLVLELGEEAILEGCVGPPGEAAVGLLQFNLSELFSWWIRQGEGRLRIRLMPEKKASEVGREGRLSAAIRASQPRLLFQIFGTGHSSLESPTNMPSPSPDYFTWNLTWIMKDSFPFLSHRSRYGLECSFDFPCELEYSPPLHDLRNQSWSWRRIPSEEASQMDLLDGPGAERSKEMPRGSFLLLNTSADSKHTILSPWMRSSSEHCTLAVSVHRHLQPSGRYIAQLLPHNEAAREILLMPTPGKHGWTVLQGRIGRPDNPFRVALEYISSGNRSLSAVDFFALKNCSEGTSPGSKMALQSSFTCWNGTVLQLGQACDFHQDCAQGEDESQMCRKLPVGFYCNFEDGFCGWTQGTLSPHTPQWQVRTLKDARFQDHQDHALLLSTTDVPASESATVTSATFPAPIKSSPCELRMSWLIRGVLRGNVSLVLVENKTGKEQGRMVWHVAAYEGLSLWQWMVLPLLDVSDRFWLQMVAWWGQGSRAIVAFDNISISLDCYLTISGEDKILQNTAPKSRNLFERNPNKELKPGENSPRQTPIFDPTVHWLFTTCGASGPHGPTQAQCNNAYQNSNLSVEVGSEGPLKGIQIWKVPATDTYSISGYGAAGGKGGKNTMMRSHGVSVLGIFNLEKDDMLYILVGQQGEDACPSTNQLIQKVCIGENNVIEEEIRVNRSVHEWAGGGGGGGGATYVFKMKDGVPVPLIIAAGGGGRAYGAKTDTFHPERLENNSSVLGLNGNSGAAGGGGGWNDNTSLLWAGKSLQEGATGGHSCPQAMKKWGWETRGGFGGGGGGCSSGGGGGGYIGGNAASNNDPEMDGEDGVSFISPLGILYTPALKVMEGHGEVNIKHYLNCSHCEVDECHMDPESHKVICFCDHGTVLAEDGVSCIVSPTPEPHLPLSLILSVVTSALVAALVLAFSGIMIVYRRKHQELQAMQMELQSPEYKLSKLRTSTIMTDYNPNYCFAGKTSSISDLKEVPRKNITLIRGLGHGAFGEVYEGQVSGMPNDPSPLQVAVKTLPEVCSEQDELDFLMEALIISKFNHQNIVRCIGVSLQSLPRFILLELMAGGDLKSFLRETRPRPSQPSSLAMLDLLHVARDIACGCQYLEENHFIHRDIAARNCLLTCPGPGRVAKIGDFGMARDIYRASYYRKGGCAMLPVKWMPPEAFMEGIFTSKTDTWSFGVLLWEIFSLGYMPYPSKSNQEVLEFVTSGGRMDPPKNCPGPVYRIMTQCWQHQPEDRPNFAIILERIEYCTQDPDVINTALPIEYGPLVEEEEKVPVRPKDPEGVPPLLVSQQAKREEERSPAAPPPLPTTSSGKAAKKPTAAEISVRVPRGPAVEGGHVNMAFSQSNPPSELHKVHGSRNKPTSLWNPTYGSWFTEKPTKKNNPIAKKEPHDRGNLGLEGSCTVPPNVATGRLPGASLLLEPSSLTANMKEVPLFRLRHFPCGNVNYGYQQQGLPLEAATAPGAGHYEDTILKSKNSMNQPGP
Description: Inhibition of recombinant ALK (unknown origin) after 1 hr by fluorescence assay

inhibition [2]: Active | inhibition [3]: Dose-dependent effect | inhibition [5]: Dose-dependent effect | IC50 [8]: 4.11 µM | inhibition [10]: Dose-dependent effect | EC50 [11]: 19.6 µM
SMILES: CC1=C(C)C2C(=O)N3N=C(NCCCN(C)C)c4ccccc4C3=NC2S1 (stereo unspecified)
Activity [1]: 23.5% | Activity [4]: Active | Activity [6]: Dose-dependent effect | Activity [7]: 37.5% | Activity [9]: Dose-dependent effect
